In US6620963B1, “TRICYCLO[6.2.202,7]DODECA-2(7),3,5-TRIEN-4-CARBONYLAMINO-PHENYL AND TRICYCLO[6.2.202,7]DODECA-2(7),3,5-TRIEN-4-CARBONYLAMINO-HETEROARYL AND RELATED COMPOUNDS HAVING RARα RECEPTOR SELECTIVE BIOLOGICAL ACTIVITY” (Allergan, Inc., priority 2002, dated 2003):

Assays:
RARβ = biological target: T1, RARβ (Homo sapiens, UniProt P10826); assay: ligand binding assay, RARβ; conditions: RARβ receptor subtype; read-out: RAR Kd (nM) β
T1 sequence (P10826 1-455): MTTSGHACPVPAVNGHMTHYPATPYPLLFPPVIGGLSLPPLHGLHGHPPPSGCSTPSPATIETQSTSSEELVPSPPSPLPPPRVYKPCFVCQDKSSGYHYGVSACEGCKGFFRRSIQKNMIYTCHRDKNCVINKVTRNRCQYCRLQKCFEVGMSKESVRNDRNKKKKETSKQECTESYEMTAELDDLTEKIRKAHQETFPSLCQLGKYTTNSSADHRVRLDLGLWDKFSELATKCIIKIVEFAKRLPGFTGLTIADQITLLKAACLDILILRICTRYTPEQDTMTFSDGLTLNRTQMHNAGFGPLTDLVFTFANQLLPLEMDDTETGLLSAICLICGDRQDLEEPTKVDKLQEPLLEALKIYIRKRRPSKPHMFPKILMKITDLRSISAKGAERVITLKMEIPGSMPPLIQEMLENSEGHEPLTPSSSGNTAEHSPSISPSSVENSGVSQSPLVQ
Description: (§1) A holoreceptor transactivation assay and a ligand binding assay which measure the antagonist/agonist like activity of the compounds of the invention, or their ability to bind to the several retinoid receptor subtypes, respectively, are described in published PCT Application No. WO WO93/11755 (particularly on pages 30-33 and 37-41) published on Jun. 24, 1993, the specification of which is also incorporated herein by reference. A detailed experimental procedure for holoreceptor transactivations has been described by Heyman et al. Cell 68, 397-406, (1992); Allegretto et al. J. Biol. Chem. 268, 26625-26633, and Mangelsdorf et al. The Retinoids: Biology, Chemistry and Medicine, pp 319-349, Raven Press Ltd., New York, which are expressly incorporated herein by reference. The results obtained in this assay are expressed in EC50 numbers, as they are also in the chimeric receptor transactivation assay. The results of ligand binding assay are expressed in Kd numbers. (See Cheng et al. Biochemical Pharmacology Vol. 22 pp 3099-3108, expressly incorporated herein by reference.)

RARα = biological target: T2, RARα (Homo sapiens, UniProt P10276); assay: ligand binding assay, RARα; conditions: RARα receptor subtype; read-out: RAR Kd (nM) α
T2 sequence (P10276 1-462): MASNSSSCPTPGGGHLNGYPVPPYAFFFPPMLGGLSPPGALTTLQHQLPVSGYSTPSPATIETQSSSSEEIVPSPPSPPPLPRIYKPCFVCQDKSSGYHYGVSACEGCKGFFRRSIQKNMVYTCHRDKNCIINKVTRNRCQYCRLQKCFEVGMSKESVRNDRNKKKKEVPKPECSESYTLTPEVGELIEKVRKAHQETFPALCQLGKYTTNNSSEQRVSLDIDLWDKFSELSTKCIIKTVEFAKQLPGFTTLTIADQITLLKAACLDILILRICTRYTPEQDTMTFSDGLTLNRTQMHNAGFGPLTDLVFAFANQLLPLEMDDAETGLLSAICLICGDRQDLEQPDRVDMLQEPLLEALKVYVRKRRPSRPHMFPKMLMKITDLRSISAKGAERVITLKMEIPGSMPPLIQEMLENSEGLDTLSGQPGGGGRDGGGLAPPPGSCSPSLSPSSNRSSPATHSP
Description: as §1

RARγ = biological target: T3, RARγ (Homo sapiens, UniProt P13631); assay: ligand binding assay, RARγ; conditions: RARγ receptor subtype; read-out: RAR Kd (nM) γ
T3 sequence (P13631 1-454): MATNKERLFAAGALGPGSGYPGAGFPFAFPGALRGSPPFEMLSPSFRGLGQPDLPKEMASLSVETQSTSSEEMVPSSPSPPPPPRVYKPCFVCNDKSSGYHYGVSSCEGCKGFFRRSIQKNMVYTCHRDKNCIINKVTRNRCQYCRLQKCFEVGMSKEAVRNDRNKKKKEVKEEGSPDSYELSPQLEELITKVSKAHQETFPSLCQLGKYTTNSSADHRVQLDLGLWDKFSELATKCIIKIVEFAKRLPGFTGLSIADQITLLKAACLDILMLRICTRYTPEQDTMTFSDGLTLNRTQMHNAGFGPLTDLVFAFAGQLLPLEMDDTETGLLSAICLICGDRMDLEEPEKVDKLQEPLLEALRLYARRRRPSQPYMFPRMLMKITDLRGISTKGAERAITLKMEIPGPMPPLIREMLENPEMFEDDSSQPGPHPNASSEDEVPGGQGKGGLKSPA
Description: as §1

| Compound | Kd (RARβ) [nM] | Kd (RARα) [nM] | Kd (RARγ) [nM] |
| --- | --- | --- | --- |
| CC12CCC(C)(CC1)c1cc(C(=O)Nc3ccc(C(=O)O)c(F)c3)c(O)cc12 [Compound 8, 2-Fluoro-4-[(5-hydroxy-1,8-dimethyl-tricyclo[6.2.20^2,7]dodeca-2(7),3,5-trien-4-carbonyl)amino]benzoic Acid] | 7200 | 53 | > 10000 |
| CC12CCC(C)(CC1)c1c2cc(C(=O)Nc2ccc(C(=O)O)c(F)c2)c(O)c1Br [Compound 10, 4-[(6-Bromo-5-hydroxy-1,8-dimethyl-tricyclo[6.2.20^2,7]dodeca-2(7),3,5-trien-4-carbonyl)amino]-2-fluorobenzoic Acid] | > 10000 | 32 | > 10000 |
| CC12CCC(C)(CC1)c1c2cc(C(=O)Nc2cc(F)c(C(=O)O)c(F)c2)c(O)c1Br [Compound 14, 4-[(6-Bromo-5-hydroxy-1,8-dimethyl-tricyclo[6.2.20^2,7]dodeca-2(7),3,5-trien-4-carbonyl)amino]-2,6-difluorobenzoic Acid] | > 10000 | 84 | > 10000 |
